Test results reported in patent publication US9650361B2, “N-(pyridin-2-yl)pyrimidin-4-amine derivatives containing a sulfoximine group” (BAYER PHARAM AKTIENGESELLSCHAFT, priority 2012, dated 2017).

Columns and labels:
HeLa cells = test: Proliferation assay, HeLa (Method 3); type: cell-based, human; conditions: Homo sapiens, HeLa, 96 h, 4 days, crystal violet; read-out: Inhibition of HeLa cell proliferation IC50
Protocol: Cultivated tumour cells (HeLa, human cervical tumour cells, ATCC CCL-2; NCI-H460, human non-small cell lung carcinoma cells, ATCC HTB-177; A2780, human ovarian carcinoma cells, ECACC #93112519; DU 145, hormone-independent human prostate carcinoma cells, ATCC HTB-81; HeLa-MaTu-ADR, multidrug-resistant human cervical carcinoma cells, EPO-GmbH Berlin; Caco-2, human colorectal carcinoma cells, ATCC HTB-37; B16F10, mouse melanoma cells, ATCC CRL-6475) were plated at a density of 5,000 cells/well (DU145, HeLa-MaTu-ADR), 3,000 cells/well (NCI-H460, HeLa), 2,500 cells/well (A2780), 1,500 cells/well (Caco-2), or 1,000 cells/well (B16F10) in a 96-well multititer plate in 200 μL of their respective growth medium supplemented 10% fetal calf serum. After 24 hours, the cells of one plate (zero-point plate) were stained with crystal violet (see below), while the medium of the other plates was replaced by fresh culture medium (200 μl), to which the test substances were added in various concentrations (0 μM, as well as in the range of 0.001-10 μM; the final concentration of the solvent dimethyl sulfoxide was 0.5%). The cells were incubated for 4 days in the presence of test substances. Cell proliferation was determined by staining the cells with crystal violet: the cells were fixed by adding 20 μl/measuring point of an 11% glutaric aldehyde solution for 15 minutes at room temperature. After three washing cycles of the fixed cells with water, the plates were dried at room temperature. The cells were stained by adding 100 μl/measuring point of a 0.1% crystal violet solution (pH 3.0). After three washing cycles of the stained cells with water, the plates were dried at room temperature. The dye was dissolved by adding 100 μl/measuring point of a 10% acetic acid solution. The extinction was determined by photometry at a wavelength of 595 nm. The change of cell number, in percent, was calculated by normalization of the measured values to the extinction values of the zero-point plate (=0%) and the extinction of the untreated (0 μm) cells (=100%). The IC50 values (inhibitory concentration at 50% of maximal effect) were determined by means of a 4 parameter fit.

CDK9/CycT1 = biological target: T1, CDK9/CycT1 (Homo sapiens, UniProt P50750); test: CDK9/CycT1 high ATP kinase assay (Method 1b); type: biochemical; conditions: 2 mM ATP
T1 construct: Recombinant full-length His-tagged human CDK9 and CycT1; His; purchased Invitrogen PV4131; host or cells: insect cells
Protocol: 1b. CDK9/CycT1 High ATP Kinase Assay
CDK9/CycT1-inhibitory activity of compounds of the present invention at a high ATP concentration after preincubation of enzyme and test compounds was quantified employing the CDK9/CycT1 TR-FRET assay as described in the following paragraphs.
Recombinant full-length His-tagged human CDK9 and CycT1, expressed in insect cells and purified by Ni-NTA affinity chromatography, were purchase from Invitrogen (Cat. No PV4131). As substrate for the kinase reaction biotinylated peptide biotin-Ttds-YISPLKSPYKISEG (C-terminus in amid form) was used which can be purchased e.g. form the company JERINI peptide technologies (Berlin, Germany).
For the assay 50 nl of a 100 fold concentrated solution of the test compound in DMSO was pipetted into a black low volume 384 well microtiter plate (Greiner Bio-One, Frickenhausen, Germany), 2 μl of a solution of CDK9/CycT1 in aqueous assay buffer [50 mM Tris/HCl pH 8.0, 10 mM MgCl2, 1.0 mM dithiothreitol, 0.1 mM sodium ortho-vanadate, 0.01% (v/v) Nonidet-P40 (Sigma)] were added and the mixture was incubated for 15 min at 22° C. to allow pre-binding of the test compounds to the enzyme before the start of the kinase reaction. Then the kinase reaction was started by the addition of 3 μl of a solution of adenosine-tri-phosphate (ATP, 3.3 mM=>final conc. in the 5 μl assay volume is 2 mM) and substrate (1.67 μM=>final conc. in the 5 μl assay volume is 1 μM) in assay buffer and the resulting mixture was incubated for a reaction time of 25 min at 22° C. The concentration of CDK9/CycT1 was adjusted depending of the activity of the enzyme lot and was chosen appropriate to have the assay in the linear range, typical concentrations were in the range of 0.5 μg/ml. The reaction was stopped by the addition of 5 μl of a solution of TR-FRET detection reagents (0.2 μM streptavidine-XL665 [Cisbio Bioassays, Codolet, France] and 1 nM anti-RB(pSer807/pSer811)-antibody from BD Pharmingen [#558389] and 1.2 nM LANCE EU-W1024 labeled anti-mouse IgG antibody [Perkin-Elmer, product no. AD0077]) in an aqueous EDTA-solution (100 mM EDTA, 0.2% (w/v) bovine serum albumin in 100 mM HEPES/NaOH pH 7.0).
The resulting mixture was incubated 1 h at 22° C. to allow the formation of complex between the phosphorylated biotinylated peptide and the detection reagents. Subsequently the amount of phosphorylated substrate was evaluated by measurement of the resonance energy transfer from the Eu-chelate to the streptavidine-XL. Therefore, the fluorescence emissions at 620 nm and 665 nm after excitation at 350 nm was measured in a HTRF reader, e.g. a Rubystar (BMG Labtechnologies, Offenburg, Germany) or a Viewlux (Perkin-Elmer). The ratio of the emissions at 665 nm and at […] was taken as the measure for the amount of phosphorylated substrate. The data were normalised (enzyme reaction without inhibitor=0% inhibition, all other assay components but no enzyme=100% inhibition).

T1 sequence (P50750 whole entry): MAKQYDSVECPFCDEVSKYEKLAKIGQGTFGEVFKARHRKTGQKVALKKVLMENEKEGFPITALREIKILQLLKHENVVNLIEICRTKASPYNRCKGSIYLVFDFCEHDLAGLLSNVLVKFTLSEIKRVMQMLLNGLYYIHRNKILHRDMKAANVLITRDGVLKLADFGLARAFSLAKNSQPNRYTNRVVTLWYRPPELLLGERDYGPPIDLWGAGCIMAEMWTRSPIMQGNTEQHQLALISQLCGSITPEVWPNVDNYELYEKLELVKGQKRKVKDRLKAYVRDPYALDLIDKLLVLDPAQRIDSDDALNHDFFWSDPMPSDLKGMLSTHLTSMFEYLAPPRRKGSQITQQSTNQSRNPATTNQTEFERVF
T1 sequence (O60563 whole entry partner): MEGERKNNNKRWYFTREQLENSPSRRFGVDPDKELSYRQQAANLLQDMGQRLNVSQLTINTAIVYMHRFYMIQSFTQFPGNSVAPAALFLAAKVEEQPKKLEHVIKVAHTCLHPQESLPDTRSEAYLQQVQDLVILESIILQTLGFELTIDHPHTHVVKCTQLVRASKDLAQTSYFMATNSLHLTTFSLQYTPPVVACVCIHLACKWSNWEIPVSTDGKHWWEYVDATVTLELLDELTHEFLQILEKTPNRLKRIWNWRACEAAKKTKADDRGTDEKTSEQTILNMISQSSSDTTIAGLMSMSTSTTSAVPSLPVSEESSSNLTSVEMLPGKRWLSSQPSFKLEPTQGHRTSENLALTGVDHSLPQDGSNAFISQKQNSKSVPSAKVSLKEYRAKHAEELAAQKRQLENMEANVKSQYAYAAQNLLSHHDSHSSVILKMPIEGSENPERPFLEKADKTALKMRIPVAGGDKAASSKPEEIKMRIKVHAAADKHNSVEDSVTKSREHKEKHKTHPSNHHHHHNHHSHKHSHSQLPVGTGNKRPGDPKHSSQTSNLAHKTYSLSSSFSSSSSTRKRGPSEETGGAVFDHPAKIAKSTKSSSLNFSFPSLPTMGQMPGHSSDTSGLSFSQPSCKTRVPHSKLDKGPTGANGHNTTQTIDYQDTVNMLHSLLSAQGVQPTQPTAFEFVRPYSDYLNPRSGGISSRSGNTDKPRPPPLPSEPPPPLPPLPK

- IC50 (HeLa cells): 338 nM
- IC50 (CDK9/CycT1): 194 nM
Compound: CCS(=N)(=O)Cc1ccnc(Nc2cc(-c3ccc(F)cc3OC)ncn2)c1 (racemic) [Example 11, (rac)-N-{4-[(S-Ethylsulfonimidoyl)methyl]pyridin-2-yl}-6-(4-fluoro-2-methoxyphenyl)pyrimidin-4-amine]
